Measured values as given in ChEMBL document CHEMBL4800722, “Data for DCP probe BI 605906” (2021).

Columns and labels:
[1] = molecular target: Cyclin-dependent kinase 14 (Homo sapiens) (UniProt O94921); experiment: CDK14 (PFTK1)/CYC Invitrogen Lab (UK) kinase screen (BI); conditions: Compound concentration 1.0 uM
[2] = molecular target: Serine/threonine-protein kinase N2 (Homo sapiens) (UniProt Q16513); experiment: PKN2 Invitrogen Lab (UK) kinase screen (BI); conditions: Compound concentration 1.0 uM
[3] = molecular target: Ephrin type-A receptor 8 (Homo sapiens) (UniProt P29322); experiment: EPHA8 Invitrogen Lab (UK) kinase screen (BI); conditions: Compound concentration 1.0 uM
[4] = molecular target: Ephrin type-B receptor 1 (Homo sapiens) (UniProt P54762); experiment: EPHB1 Invitrogen Lab (UK) kinase screen (BI); conditions: Compound concentration 1.0 uM
[5] = molecular target: Dual specificity mitogen-activated protein kinase kinase 1 (Homo sapiens) (UniProt Q02750); experiment: MAP2K1 Invitrogen Lab (UK) kinase screen (BI)
[6] = molecular target: Tyrosine-protein kinase CSK (Homo sapiens) (UniProt P41240); experiment: CSK DUNDEE kinase screen (BI); conditions: Compound concentration 10.0 uM
[7] = molecular target: cAMP-dependent protein kinase (PKA) (Homo sapiens) (UniProt P22694+P17612+P22612); experiment: PKA(REC) DUNDEE kinase screen (BI); format: protein assay; conditions: Compound concentration 10.0 uM
[8] = molecular target: 5-hydroxytryptamine receptor 1E (Homo sapiens) (UniProt P28566); conditions: Compound concentration 10.0 uM
[9] = molecular target: 5-hydroxytryptamine receptor 2A (Homo sapiens) (UniProt P28223); conditions: Compound concentration 10.0 uM
[10] = molecular target: Muscarinic acetylcholine receptor M4 (Homo sapiens) (UniProt P08173); conditions: Compound concentration 10.0 uM
[11] = molecular target: 5-hydroxytryptamine receptor 4 (Cavia porcellus) (UniProt O70528); conditions: Compound concentration 10.0 uM
[12] = molecular target: Acetylcholinesterase (Homo sapiens) (UniProt P22303); conditions: Compound concentration 10.0 uM
[13] = molecular target: D(2) dopamine receptor (Homo sapiens) (UniProt P14416); conditions: Compound concentration 10.0 uM
[14] = molecular target: AMP-activated protein kinase alpha-2/beta-1/gamma-3 (Homo sapiens) (UniProt P54646+Q9Y478+Q9UGI9); conditions: Compound concentration 1.0 uM
[15] = molecular target: Mitogen-activated protein kinase kinase kinase kinase 1 (Homo sapiens) (UniProt Q92918); conditions: Compound concentration 1.0 uM
[16] = molecular target: Phosphatidylinositol 4-kinase type 2-alpha (Homo sapiens) (UniProt Q9BTU6); conditions: Compound concentration 1.0 uM
[17] = molecular target: Phosphatidylinositol 4-phosphate 5-kinase type-1 beta (Homo sapiens) (UniProt O14986); conditions: Compound concentration 1.0 uM
[18] = molecular target: Dual specificity tyrosine-phosphorylation-regulated kinase 1B (Homo sapiens) (UniProt Q9Y463)
[19] = molecular target: Dual specificity tyrosine-phosphorylation-regulated kinase 4 (Homo sapiens) (UniProt Q9NR20); conditions: Compound concentration 1.0 uM
[20] = molecular target: Ephrin type-A receptor 4 (Homo sapiens) (UniProt P54764); conditions: Compound concentration 1.0 uM
[21] = molecular target: Glycogen synthase kinase-3 beta (Homo sapiens) (UniProt P49841)
[22] = molecular target: Tyrosine-protein kinase JAK1 (Homo sapiens) (UniProt P23458); conditions: Compound concentration 1.0 uM
[23] = molecular target: Mitogen-activated protein kinase kinase kinase 8 (Homo sapiens) (UniProt P41279); conditions: Compound concentration 1.0 uM
[24] = molecular target: Serine/threonine-protein kinase NLK (Homo sapiens) (UniProt Q9UBE8); conditions: Compound concentration 1.0 uM
[25] = molecular target: Ribosomal protein S6 kinase alpha-1 (Homo sapiens) (UniProt Q15418); conditions: Compound concentration 1.0 uM
[26] = molecular target: Ribosomal protein S6 kinase alpha-3 (Homo sapiens) (UniProt P51812)
[27] = molecular target: Ribosomal protein S6 kinase alpha-6 (Homo sapiens) (UniProt Q9UK32); conditions: Compound concentration 1.0 uM
[28] = molecular target: STE20-like serine/threonine-protein kinase (Homo sapiens) (UniProt Q9H2G2); conditions: Compound concentration 1.0 uM
[29] = molecular target: Serine/threonine-protein kinase TAO3 (Homo sapiens) (UniProt Q9H2K8); conditions: Compound concentration 1.0 uM

Dual specificity tyrosine-phosphorylation-regulated kinase 1B (Homo sapiens), sequence (Q9Y463 whole entry, looked up): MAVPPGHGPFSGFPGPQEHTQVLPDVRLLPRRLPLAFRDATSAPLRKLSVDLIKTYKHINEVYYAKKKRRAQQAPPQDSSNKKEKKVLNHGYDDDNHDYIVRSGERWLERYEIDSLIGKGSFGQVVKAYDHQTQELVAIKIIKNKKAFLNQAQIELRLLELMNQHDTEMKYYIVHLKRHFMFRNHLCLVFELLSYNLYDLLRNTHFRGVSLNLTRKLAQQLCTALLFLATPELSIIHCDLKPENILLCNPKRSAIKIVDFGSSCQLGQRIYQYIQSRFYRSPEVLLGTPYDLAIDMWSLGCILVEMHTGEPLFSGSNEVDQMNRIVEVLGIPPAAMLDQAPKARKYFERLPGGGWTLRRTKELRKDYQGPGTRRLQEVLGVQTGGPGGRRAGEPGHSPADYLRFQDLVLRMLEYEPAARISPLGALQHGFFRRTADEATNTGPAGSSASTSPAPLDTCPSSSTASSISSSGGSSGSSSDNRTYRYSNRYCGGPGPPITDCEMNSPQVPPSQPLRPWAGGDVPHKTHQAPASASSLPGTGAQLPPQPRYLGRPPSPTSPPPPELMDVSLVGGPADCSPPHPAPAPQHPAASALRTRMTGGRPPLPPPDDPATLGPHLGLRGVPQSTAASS
Ribosomal protein S6 kinase alpha-3 (Homo sapiens), sequence (P51812 whole entry): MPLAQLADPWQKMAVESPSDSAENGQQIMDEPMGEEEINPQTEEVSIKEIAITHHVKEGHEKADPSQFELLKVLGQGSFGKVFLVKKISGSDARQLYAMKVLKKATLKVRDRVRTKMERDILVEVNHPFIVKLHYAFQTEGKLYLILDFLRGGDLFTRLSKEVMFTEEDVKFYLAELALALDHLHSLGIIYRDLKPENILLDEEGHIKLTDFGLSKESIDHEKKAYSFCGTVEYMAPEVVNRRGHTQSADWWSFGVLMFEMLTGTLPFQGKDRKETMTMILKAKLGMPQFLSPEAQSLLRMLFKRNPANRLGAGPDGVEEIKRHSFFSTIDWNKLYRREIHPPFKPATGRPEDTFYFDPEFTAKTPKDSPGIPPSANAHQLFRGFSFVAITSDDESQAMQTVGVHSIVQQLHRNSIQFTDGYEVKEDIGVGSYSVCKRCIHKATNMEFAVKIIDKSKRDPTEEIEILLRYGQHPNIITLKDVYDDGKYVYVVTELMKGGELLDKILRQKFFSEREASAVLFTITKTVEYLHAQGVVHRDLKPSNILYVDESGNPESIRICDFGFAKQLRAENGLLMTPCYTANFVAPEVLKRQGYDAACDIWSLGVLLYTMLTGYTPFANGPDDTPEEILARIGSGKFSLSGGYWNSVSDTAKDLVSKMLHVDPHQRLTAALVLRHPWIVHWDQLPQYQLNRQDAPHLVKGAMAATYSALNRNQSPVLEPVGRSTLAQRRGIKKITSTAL
Dual specificity mitogen-activated protein kinase kinase 1 (Homo sapiens), sequence (Q02750 whole entry): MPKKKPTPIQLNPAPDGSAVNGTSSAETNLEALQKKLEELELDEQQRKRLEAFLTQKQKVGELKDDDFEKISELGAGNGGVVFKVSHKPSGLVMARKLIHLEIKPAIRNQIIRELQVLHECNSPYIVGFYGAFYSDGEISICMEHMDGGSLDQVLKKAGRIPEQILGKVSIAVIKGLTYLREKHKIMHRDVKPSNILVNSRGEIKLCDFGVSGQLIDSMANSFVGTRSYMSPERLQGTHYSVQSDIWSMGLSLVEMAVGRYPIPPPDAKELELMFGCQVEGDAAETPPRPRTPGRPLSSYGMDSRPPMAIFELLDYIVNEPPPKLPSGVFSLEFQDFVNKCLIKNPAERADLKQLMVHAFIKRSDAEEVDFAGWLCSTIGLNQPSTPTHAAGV
Glycogen synthase kinase-3 beta (Homo sapiens), sequence (P49841 whole entry, looked up): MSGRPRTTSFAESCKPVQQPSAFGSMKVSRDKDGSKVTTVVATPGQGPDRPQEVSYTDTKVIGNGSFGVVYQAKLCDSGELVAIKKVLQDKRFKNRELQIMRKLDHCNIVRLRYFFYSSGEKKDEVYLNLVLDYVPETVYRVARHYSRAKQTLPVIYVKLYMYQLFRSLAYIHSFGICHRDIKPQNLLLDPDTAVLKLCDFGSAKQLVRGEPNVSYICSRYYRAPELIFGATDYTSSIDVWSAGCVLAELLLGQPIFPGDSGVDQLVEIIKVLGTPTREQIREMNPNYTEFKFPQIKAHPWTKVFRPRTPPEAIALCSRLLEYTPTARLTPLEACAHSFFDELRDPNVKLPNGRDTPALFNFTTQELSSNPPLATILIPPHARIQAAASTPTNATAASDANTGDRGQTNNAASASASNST
AMP-activated protein kinase alpha-2/beta-1/gamma-3 (Homo sapiens), sequence (P54646 whole entry): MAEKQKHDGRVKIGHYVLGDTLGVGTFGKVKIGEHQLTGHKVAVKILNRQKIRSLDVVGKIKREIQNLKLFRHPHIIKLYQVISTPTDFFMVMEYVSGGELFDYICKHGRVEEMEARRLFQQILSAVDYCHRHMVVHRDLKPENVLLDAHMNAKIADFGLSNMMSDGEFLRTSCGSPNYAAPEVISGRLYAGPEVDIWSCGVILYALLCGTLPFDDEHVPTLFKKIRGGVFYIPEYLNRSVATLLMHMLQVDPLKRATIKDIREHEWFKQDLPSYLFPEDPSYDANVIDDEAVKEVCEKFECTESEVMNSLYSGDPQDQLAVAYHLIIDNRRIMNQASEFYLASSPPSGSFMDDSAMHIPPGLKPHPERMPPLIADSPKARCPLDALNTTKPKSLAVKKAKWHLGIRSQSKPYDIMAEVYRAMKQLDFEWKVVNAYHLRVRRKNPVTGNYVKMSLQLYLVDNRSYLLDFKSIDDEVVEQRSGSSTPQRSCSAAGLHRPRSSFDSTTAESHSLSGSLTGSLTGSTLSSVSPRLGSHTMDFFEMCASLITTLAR
AMP-activated protein kinase alpha-2/beta-1/gamma-3 (Homo sapiens), sequence (Q9UGI9 whole entry partner): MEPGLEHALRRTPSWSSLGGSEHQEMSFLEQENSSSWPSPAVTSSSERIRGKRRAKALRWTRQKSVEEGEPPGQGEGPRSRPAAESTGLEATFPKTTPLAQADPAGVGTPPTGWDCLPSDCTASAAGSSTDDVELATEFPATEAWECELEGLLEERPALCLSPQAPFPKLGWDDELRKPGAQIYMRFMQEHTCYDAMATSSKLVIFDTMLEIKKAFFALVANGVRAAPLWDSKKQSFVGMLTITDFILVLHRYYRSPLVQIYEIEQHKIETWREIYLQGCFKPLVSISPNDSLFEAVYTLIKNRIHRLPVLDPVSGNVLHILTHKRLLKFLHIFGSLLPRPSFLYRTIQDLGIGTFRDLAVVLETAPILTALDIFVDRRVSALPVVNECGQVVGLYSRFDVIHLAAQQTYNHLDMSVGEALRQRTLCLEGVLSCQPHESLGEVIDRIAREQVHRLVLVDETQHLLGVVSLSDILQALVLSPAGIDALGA
AMP-activated protein kinase alpha-2/beta-1/gamma-3 (Homo sapiens), sequence (Q9Y478 2-270 partner limits assumed): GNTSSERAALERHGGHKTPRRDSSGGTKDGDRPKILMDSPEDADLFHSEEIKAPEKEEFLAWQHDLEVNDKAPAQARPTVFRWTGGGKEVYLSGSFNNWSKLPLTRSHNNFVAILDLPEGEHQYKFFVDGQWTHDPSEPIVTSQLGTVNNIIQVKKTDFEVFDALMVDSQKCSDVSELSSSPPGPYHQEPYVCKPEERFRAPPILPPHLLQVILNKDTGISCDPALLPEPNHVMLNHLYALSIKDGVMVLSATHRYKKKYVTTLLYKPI
Ephrin type-A receptor 8 (Homo sapiens), sequence (P29322 whole entry): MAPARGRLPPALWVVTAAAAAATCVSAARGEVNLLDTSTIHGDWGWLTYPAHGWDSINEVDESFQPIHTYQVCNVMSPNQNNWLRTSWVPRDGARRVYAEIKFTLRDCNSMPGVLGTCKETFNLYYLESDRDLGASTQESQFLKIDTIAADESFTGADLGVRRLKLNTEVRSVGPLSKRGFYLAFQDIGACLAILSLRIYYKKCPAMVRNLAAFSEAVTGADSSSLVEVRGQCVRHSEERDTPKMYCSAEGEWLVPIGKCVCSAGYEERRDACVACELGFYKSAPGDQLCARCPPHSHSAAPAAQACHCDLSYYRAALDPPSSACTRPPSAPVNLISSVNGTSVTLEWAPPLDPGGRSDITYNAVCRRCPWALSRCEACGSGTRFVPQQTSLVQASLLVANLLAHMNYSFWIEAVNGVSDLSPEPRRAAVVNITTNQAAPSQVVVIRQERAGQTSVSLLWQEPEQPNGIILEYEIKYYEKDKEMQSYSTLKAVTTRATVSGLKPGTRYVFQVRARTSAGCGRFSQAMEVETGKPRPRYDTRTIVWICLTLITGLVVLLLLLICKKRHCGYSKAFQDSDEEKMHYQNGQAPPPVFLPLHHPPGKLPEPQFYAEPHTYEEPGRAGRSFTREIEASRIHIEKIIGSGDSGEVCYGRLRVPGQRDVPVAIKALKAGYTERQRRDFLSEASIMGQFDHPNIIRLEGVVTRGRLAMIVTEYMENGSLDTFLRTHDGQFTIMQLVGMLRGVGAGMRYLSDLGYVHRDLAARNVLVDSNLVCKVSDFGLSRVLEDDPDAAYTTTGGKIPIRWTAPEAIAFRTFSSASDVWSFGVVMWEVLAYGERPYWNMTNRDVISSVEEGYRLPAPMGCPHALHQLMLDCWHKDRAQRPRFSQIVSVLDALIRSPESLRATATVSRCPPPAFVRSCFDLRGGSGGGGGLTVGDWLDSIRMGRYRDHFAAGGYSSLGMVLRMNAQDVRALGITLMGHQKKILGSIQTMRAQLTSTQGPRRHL
5-hydroxytryptamine receptor 1E (Homo sapiens), sequence (P28566 whole entry): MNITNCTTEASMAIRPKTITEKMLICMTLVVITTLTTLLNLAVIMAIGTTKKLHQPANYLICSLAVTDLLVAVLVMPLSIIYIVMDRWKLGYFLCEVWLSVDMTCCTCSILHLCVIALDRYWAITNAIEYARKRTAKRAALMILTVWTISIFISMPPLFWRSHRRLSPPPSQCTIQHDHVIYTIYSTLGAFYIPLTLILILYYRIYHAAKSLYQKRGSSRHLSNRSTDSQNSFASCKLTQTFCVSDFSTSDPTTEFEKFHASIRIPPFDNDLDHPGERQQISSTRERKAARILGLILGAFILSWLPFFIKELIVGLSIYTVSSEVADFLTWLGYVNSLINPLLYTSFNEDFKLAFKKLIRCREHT

CCC(F)(F)c1cc(N2CCC(S(C)(=O)=O)CC2)nc2sc(C(N)=O)c(N)c12 [BI-605906]
inactive: residual activity [1] 70% | residual activity [2] 86% | residual activity [3] 85% | residual activity [4] 85% | residual activity ([5]; Compound concentration 1.0 uM) 76% | residual activity ([5]; Compound concentration 10.0 uM) 80% | residual activity [6] 78.3% | residual activity [7] 61.7% | inhibition [8] 1.69% | inhibition [9] 6.1% | inhibition [10] 13.3% | residual activity [11] 98% | residual activity [12] 87% | residual activity [13] 100% | residual activity [14] 89% | residual activity [15] 82% | residual activity [16] 92% | residual activity [17] 108% | residual activity ([18]; Compound concentration 1.0 uM) 95% | residual activity ([18]; Compound concentration 10.0 uM) 91% | residual activity [19] 97% | residual activity [20] 93% | residual activity ([21]; Compound concentration 1.0 uM) 93% | residual activity ([21]; Compound concentration 10.0 uM) 87% | residual activity [22] 98% | residual activity [23] 90% | residual activity [24] 93% | residual activity [25] 94% | residual activity ([26]; Compound concentration 1.0 uM) 94% | residual activity ([26]; Compound concentration 10.0 uM) 95% | residual activity [27] 98% | residual activity [28] 99% | residual activity [29] 93%
